Experimental data from ChEMBL document CHEMBL4043232, “A mimetic of the mSin3-binding helix of NRSF/REST ameliorates abnormal pain behavior in chronic pain models” (2017).
Activity calls are given as the source filed them.

Key:
[1] = biological target: T1, Paired amphipathic helix protein Sin3b (Mus musculus) (UniProt Q62141); test: Inhibition of N-terminal GST-tagged mouse Sin3B PAH1 domain (28 to 107 residues) expressed in Escherichia coli BL21 (DE3) binding to NRSF/REST at 100 uM by 1H STD-NMR spectrometric analysis
T1 sequence (whole entry): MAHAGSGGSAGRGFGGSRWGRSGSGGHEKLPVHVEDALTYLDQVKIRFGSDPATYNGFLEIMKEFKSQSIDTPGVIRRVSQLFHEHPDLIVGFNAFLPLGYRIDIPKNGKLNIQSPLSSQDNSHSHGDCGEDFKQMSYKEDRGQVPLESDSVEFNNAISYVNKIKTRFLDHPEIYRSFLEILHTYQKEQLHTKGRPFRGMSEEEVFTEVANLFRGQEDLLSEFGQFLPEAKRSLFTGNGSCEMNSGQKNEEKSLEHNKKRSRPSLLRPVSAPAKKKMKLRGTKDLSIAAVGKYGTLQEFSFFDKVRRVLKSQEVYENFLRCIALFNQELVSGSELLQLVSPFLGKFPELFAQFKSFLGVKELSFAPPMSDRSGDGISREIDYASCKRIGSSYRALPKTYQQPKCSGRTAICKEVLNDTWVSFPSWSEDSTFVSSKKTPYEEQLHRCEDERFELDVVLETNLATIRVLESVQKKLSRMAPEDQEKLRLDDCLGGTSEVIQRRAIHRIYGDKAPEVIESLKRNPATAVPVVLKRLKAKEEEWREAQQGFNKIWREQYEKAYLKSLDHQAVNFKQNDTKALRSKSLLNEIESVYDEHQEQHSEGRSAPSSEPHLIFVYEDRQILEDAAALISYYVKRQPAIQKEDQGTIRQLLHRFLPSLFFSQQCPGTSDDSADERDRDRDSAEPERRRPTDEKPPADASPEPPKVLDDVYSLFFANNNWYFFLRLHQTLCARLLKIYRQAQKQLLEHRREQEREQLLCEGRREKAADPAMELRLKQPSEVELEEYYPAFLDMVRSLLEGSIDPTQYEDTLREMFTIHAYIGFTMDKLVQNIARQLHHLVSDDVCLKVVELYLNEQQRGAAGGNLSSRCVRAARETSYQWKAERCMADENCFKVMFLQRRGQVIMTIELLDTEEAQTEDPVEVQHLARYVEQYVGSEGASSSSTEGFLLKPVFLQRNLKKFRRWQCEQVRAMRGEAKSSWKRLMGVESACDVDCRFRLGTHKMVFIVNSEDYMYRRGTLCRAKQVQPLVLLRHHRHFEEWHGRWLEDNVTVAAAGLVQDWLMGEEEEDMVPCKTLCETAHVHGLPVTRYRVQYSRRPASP

Mus musculus [2] = test: Antinociceptive activity in intermittent psychological stress treated partial sciatic nerve ligation C57BL/6J mouse model of fibromyalgia assessed as paw withdrawal latency time at 10 mg/kg, ip measured on day 5 (reference value: 3 sec); format: functional
Mus musculus [3] = test: Antinociceptive activity in intermittent cold stress treated partial sciatic nerve ligation C57BL/6J mouse model of fibromyalgia assessed as paw withdrawal latency time at 10 mg/kg, ip measured on day 5 (reference value: 10 sec); format: functional
Mus musculus [4] = test: Antinociceptive activity in partial sciatic nerve ligation C57BL/6J mouse model of neuropathic pain assessed as C-fiber stimulated paw withdrawal threshold at 10 mg/kg, ip measured on day 12 (reference value: 6 microA); format: functional
Mus musculus [5] = test: Antinociceptive activity in intermittent cold stress treated partial sciatic nerve ligation C57BL/6J mouse model of fibromyalgia assessed as reversal of thermal hyperalgesia at 10 mg/kg, ip administered daily from day 5 to day 11 measured on day 12; format: functional, organism-based
[6] = biological target: T1, Paired amphipathic helix protein Sin3b (Mus musculus); test: Binding affinity to N-terminal GST-tagged mouse Sin3B PAH1 domain (28 to 107 residues) expressed in Escherichia coli BL21 (DE3) assessed as chemical shift perturbations at 100 uM by 1H-15N HSQC titration analysis
Mus musculus [7] = test: Antinociceptive activity in intermittent psychological stress treated partial sciatic nerve ligation C57BL/6J mouse model of fibromyalgia assessed as paw withdrawal latency time at 10 mg/kg, ip measured on day 5 (reference value: 4 sec); format: functional
Mus musculus [8] = test: Antinociceptive activity in partial sciatic nerve ligation C57BL/6J mouse model of neuropathic pain assessed as reduction in peripheral morphine analgesia at 10 mg/kg, ip administered daily from day 5 to day 11 measured on day 12; format: functional, organism-based
Mus musculus [9] = test: Antinociceptive activity in intermittent psychological stress treated partial sciatic nerve ligation C57BL/6J mouse model of fibromyalgia assessed as paw withdrawal latency time at 10 mg/kg, ip measured on day 19 (reference value: 4 sec); format: functional
Mus musculus [10] = test: Antinociceptive activity in partial sciatic nerve ligation C57BL/6J mouse model of neuropathic pain assessed as reduction in C-fiber stimulated hyposensitivity at 10 mg/kg, ip administered daily from day 5 to day 11 measured on day 12; format: functional, organism-based
Mus musculus [11] = test: Antinociceptive activity in intermittent psychological stress treated partial sciatic nerve ligation C57BL/6J mouse model of fibromyalgia assessed as paw withdrawal latency time at 10 mg/kg, ip measured on day 19 (reference value: 3 sec); format: functional
Mus musculus [12] = test: Antinociceptive activity in intermittent psychological stress treated partial sciatic nerve ligation C57BL/6J mouse model of fibromyalgia assessed as reversal of thermal hyperalgesia at 10 mg/kg, ip administered daily from day 5 to day 11 measured on day 12; format: functional, organism-based
Mus musculus [13] = test: Antinociceptive activity in intermittent cold stress treated partial sciatic nerve ligation C57BL/6J mouse model of fibromyalgia assessed as reduction in central morphine analgesia at 10 mg/kg, ip administered daily from day 5 to day 11 measured on day 12; format: functional, organism-based
Mus musculus [14] = test: Antinociceptive activity in intermittent psychological stress treated partial sciatic nerve ligation C57BL/6J mouse model of fibromyalgia assessed as paw withdrawal latency time at 10 mg/kg, ip measured on day 12 (reference value: 3 sec); format: functional
Mus musculus [15] = test: Antinociceptive activity in intermittent cold stress treated partial sciatic nerve ligation C57BL/6J mouse model of fibromyalgia assessed as paw withdrawal latency time at 10 mg/kg, ip measured on day 12 (reference value: 13 sec); format: functional
Mus musculus [16] = test: Antinociceptive activity in intermittent psychological stress treated partial sciatic nerve ligation C57BL/6J mouse model of fibromyalgia assessed as paw withdrawal latency time at 10 mg/kg, ip measured on day 12 (reference value: 4 sec); format: functional
Mus musculus [17] = test: Antinociceptive activity in partial sciatic nerve ligation C57BL/6J mouse model of neuropathic pain assessed as C-fiber stimulated paw withdrawal threshold at 10 mg/kg, ip measured on day 5 (reference value: 3 microA); format: functional
Mus musculus [18] = test: Antinociceptive activity in intermittent psychological stress treated partial sciatic nerve ligation C57BL/6J mouse model of fibromyalgia assessed as reduction in central morphine analgesia at 10 mg/kg, ip administered daily from day 5 to day 11 measured on day 12; format: functional, organism-based

SMILES	inhibition [1]	Time (Mus musculus [2])	Time (Mus musculus [3])	Activity (Mus musculus [4])	Activity (Mus musculus [5])	Activity [6]	Time (Mus musculus [7])	Activity (Mus musculus [8])	Time (Mus musculus [9])	Activity (Mus musculus [10])	Time (Mus musculus [11])	Activity (Mus musculus [12])	Activity (Mus musculus [13])	Time (Mus musculus [14])	Time (Mus musculus [15])	Time (Mus musculus [16])	Activity (Mus musculus [17])	Activity (Mus musculus [18])
CCCC[C@H]1C(=O)N(CCC(C)C)C[C@@H]2N(C(=O)OC(C)C)CC3(CCCCC3)C(=O)N21	Active	–	–	–	–	–	–	–	–	–	–	–	–	–	–	–	–	–
CC[C@H]1ON(C(=O)OC(C)C)[C@H]2CN(CCC(C)C)C(=O)[C@H](CCSC)N2C1=O	Active	3 s	10 s	6 microA	Active	Active	4 s	Active	4 s	Active	3 s	Active	Active	3 s	13 s	4 s	3 microA	Active
